Experimental data taken from patent US11266753B2, “2-[5-(imidazol-1-ylmethyl)pyridin-3-yl]benzimtdazole derivative compound, and medicament including same” (Nihon Medi-Physics Co., Ltd., priority 2017, dated 2022).

Tests used:
[1] = system: lesion region having an aldosterone-producing tumor site (human adrenal section); assay: In vitro autoradiography using human adrenal tumor: binding ability to lesion region; conditions: for B2, binding ability to a lesion region, ratio to reference compound: relative to [123I]IMTO = 1, human plasma, 37° C., 10 minutes; for concentration shown at the lesion sites on autoradiograms (FIG. 1): Samples 1 to 6, compared with Compound [18F]100
Method: (§1) By using a frozen human adrenal tissue specimen containing a lesion region having an aldosterone-producing tumor site, and a normal region in an adjacent part to the lesion region, in vitro autoradiography was performed. Specifically, a slide glass on which a section prepared by embedding the specimen in an embedding medium for preparing a frozen tissue section (Tissue-Tek O.C.T. Compound, manufactured by Sakura Finetek Japan Co., Ltd.), and thinly cutting the embedded specimen of human adrenal tissue to have a thickness of 7 μm had been pasted (stored at −80° C., hereinafter, referred to as human adrenal section) was used for experiment.
(§2) A solution of each of Compounds [^18F]100, [^18F]101, [^18F]102, and […], which had been obtained in Reference Example 2, Example 2, 4, or 6, and Compound [^123I]IMTO (reference compound) was dispensed into a vial, and the amount of radioactivity was measured by a radioisotope dose calibrator (CRC-15R, manufactured by Capintec, Inc.) The radioactive concentration of a solution that had been prepared by adding each solution obtained above to human plasma (hereinafter referred to as reaction mixture) was measured by using an autowell gamma system (ARC-7001, manufactured by Hitachi, Ltd.).
(§3) For preincubation, a human adrenal section was immersed in phosphate-buffered saline (PBS) at 37° C. for 5 minutes, and then immersed in human plasma at 37° C. for 5 minutes. Next, as a reaction step, the human adrenal section was immersed in the reaction mixture at 37° C. for 10 minutes. After that, the human adrenal section was washed with human plasma five times at 37° C. for 2 minutes, and then air-dried. Further, a piece of filter paper, which had been cut out into a circular shape and had been pasted on a slide glass, was impregnated with a known amount of the reaction mixture, and then air dried, and the resultant piece was used as a standard radiation source.
(§4) The air-dried human adrenal section and the air-dried standard radiation source were exposed to an imaging plate (BAS-SR2040, manufactured by Fujifilm Corporation) (IP sheet), and autoradiograms were obtained by a fluoro image analyzer (Typhoo FLA 7000 IP, manufactured by GE Healthcare Japan Corporation). A region of interest (ROI) was set in each of the lesion region and normal region obtained on the autoradiograms, and the radiation count was determined. The ROI was also set for the standard radiation source, and the radiation count was determined.
(§5) For the autoradiograms obtained for the human adrenal section, the radiation count (correction value) of each region (lesion region or normal region) was determined as in formula (1) as a correction value to the standard radiation source.
(§6) The binding ability of the compound according to the present invention (each of Compounds [^18F]101, [^18F]102, and [^18F]103) to each region (lesion region or normal region) was determined as in formulas (2) and (3) as the relative value in a case where the radiation count (correction value) in each region of ^[123I]IMTO (reference compound) was set to 1. Further, the lesion/normal ratio was determined as in formula (4).

[2] = system: normal region in an adjacent part to the lesion region (human adrenal section); assay: In vitro autoradiography using human adrenal tumor: binding ability to normal region; conditions: relative to [123I]IMTO = 1, human plasma, 37° C., 10 minutes
Method: as §1, §2, §3, §4, §5, §6

[3] = Pharmacokinetic distribution experiment (PET, SUV of liver, kidney, spleen); type: in vivo, normal rats; conditions: FIG. 2; for radioactivity accumulation in tissues (the liver, kidney, and spleen) surrounding the adrenal glands: PET SUV at 60 minutes and 180 minutes after the administration; for high radioactivity accumulation that would be an obstacle in the adrenal gland imaging: liver, kidney, spleen, 60 and 180 minutes after the administration
Method: The compounds according to the present invention (Compounds [^18F]101, [^18F]102, and [^18F]103) were administered to three normal rats without anesthesia. Imaging data for 15 minutes under isoflurane anesthesia were collected at 60 minutes and 180 minutes after the administration. The imaging data were subjected to image reconstruction by a positron emission tomography (PET) device (instrument: eXplore VISTA, manufactured by GE Healthcare Japan Corporation), and then a volume of interest (VOI) was set in each of the liver, kidney, and spleen, and a standardized uptake value (SUV) of each tissue was determined as in formula (5).

| B2/B1, lesion/normal ratio ([1]; Sample 1) | B2, binding ability to a lesion region, ratio to reference compound ([1]; Sample 1) | B2/B1, lesion/normal ratio ([1]; Sample 2) | B2, binding ability to a lesion region, ratio to reference compound ([1]; Sample 2) | B2/B1, lesion/normal ratio ([1]; Sample 3) | B2, binding ability to a lesion region, ratio to reference compound ([1]; Sample 3) | B2/B1, lesion/normal ratio ([1]; Sample 4) | B2, binding ability to a lesion region, ratio to reference compound ([1]; Sample 4) | B2/B1, lesion/normal ratio ([1]; Sample 5) | B2, binding ability to a lesion region, ratio to reference compound ([1]; Sample 5) | B2/B1, lesion/normal ratio ([1]; Sample 6) | B2, binding ability to a lesion region, ratio to reference compound ([1]; Sample 6) | B1, binding ability to a normal region, ratio to reference compound ([2]; Sample 1) | B1, binding ability to a normal region, ratio to reference compound ([2]; Sample 2) | B1, binding ability to a normal region, ratio to reference compound ([2]; Sample 3) | B1, binding ability to a normal region, ratio to reference compound ([2]; Sample 4) | B1, binding ability to a normal region, ratio to reference compound ([2]; Sample 5) | B1, binding ability to a normal region, ratio to reference compound ([2]; Sample 6) | radioactivity accumulation in tissues (the liver, kidney, and spleen) surrounding the adrenal glands [3] | Compound | concentration shown at the lesion sites on autoradiograms (FIG. 1) [1] | also measured |
| --- | --- | --- | --- | --- | --- | --- | --- | --- | --- | --- | --- | --- | --- | --- | --- | --- | --- | --- | --- | --- | --- |
| 14.44 | 0.19 | 19.66 | 0.24 | 8.44 | 0.32 | 8.28 | 0.21 | 14.94 | 0.13 | 37.80 | 0.45 | 0.00 | 0.01 | 0.03 | 0.01 | 0.01 | 0.01 | decreased over time | Fc1ccc2nc(-c3cncc(Cn4ccnc4)c3)n(CC[18F])c2c1 [Compound [^18F]101, 6-fluoro-1-(2-[^18F]fluoroethyl)-2-[5-(imidazol-1-ylmethyl)pyridin-3-yl]benzimidazole] | higher concentration than that of Compound [^18F]100 | high radioactivity accumulation that would be an obstacle in the adrenal gland imaging [3]: not observed |
| 6.78 | 0.19 | 8.69 | 0.31 | 8.20 | 0.65 | 4.32 | 0.41 | 9.21 | 0.14 | 23.93 | 0.63 | 0.01 | 0.03 | 0.05 | 0.05 | 0.01 | 0.03 | decreased over time | Fc1cc2nc(-c3cncc(Cn4ccnc4)c3)n(CC[18F])c2cc1F [Compound [^18F]102, 5,6-difluoro-1-(2-[^18F]fluoroethyl)-2-[5-(imidazol-1-ylmethyl)pyridin-3-yl]benzimidazole] | higher concentration than that of Compound [^18F]100 | high radioactivity accumulation that would be an obstacle in the adrenal gland imaging [3]: not observed |
| 4.57 | 0.23 | 12.05 | 0.46 | 2.68 | 0.79 | 2.03 | 0.33 | 5.17 | 0.29 | 15.42 | 1.09 | 0.02 | 0.04 | 0.20 | 0.08 | 0.04 | 0.07 | decreased over time | N#Cc1cc2c(cc1F)nc(-c1cncc(Cn3ccnc3)c1)n2CC[18F] [Compound [^18F]103, 2-[5-(1H-imidazol-1-ylmethyl)pyridin-3-yl]-5-fluoro-1-(2-[^18F]fluoroethyl)-1H-benzo[d]imidazole-6-carbonitrile] | higher concentration than that of Compound [^18F]100 | high radioactivity accumulation that would be an obstacle in the adrenal gland imaging [3]: not observed |
